Read-outs that look alike come from different tables or passages of the source.
Legend:
[1] = cited from earlier work
[2] = PAMPA permeability with subject invention membrane; type: in vitro ADME; conditions: for Papp at 5 h: PAMPA; for measured permeability with 10% methanol, 90% PBS as working buffer: 90% PBS versus PBS, FIG. 8
Description: FIGS. 5-9 present various data relating to the subject invention. […] Then the filter plate 34 was coupled with the receiver plate 42 and the assembly was incubated in a humidity chamber without agitation at room temperature (except for a data set in FIG. 9, where the assembly was incubated in a humidity chamber without agitation at 37° C.) for 5 hours. At the end of the incubation, the plates 34, 42 were separated and 150 μL solution from each well 36, 44 of both the filter plate 34 and the receiver plate 42 was transferred to UV-transparent plates. The final concentrations of compounds in both donor wells and acceptor wells were analyzed by UV-plate reader. […] Where: • C0=initial compound concentration in donor well (mM) • CD (t)=compound concentration in donor well at time t. (mM) • CA (t)=compound concentration in acceptor well at time t.

[3] = human oral absorption; cited from earlier work
[4] = PBS pH 7.4, room temperature, no agitation, 5 hours, read-out: Pe Subject Invention Membrane Results
[5] = prior art PAMPA membrane, PBS pH 7.4, room temperature, no agitation

SMILES | Papp at 5 h [2, 4] | Human Absorption [3] | Pe Prior Art Results [1, 5] | other results
Cn1c(=O)c2c(ncn2C)n(C)c1=O [caffeine] |  |  |  | PAMPA permeability values found by the prior art ([1]; in words): low
Cn1c(=O)c2[nH]cnc2n(C)c1=O [theophyline] |  |  |  | Pe Prior Art Results ([1]; PAMPA, pH 7.4): 0.04 10^−6 cm/s
CC(C)(C)NCC(O)c1cc(O)cc(O)c1 (stereo not drawn) [terbutaline] | 0.46 ×10⁻⁶ cm/s | 60% | 0.05 10^−6 cm/s | 
CCCC(=O)Nc1ccc(OCC(O)CNC(C)C)c(C(C)=O)c1 (stereo not drawn) [acebutolol] | 0.21 ×10⁻⁶ cm/s | 50% |  | 
N=C(N)NC(=O)c1nc(Cl)c(N)nc1N [amiloride] | 0.08 ×10⁻⁶ cm/s | 50% | 0.00 10^−6 cm/s | 
CCN1CCCC1CNC(=O)c1cc(S(N)(=O)=O)ccc1OC (stereo not drawn) [sulpiride] | 0.18 ×10⁻⁶ cm/s |  |  | 
CC(=O)CC(c1ccccc1)c1c(O)c2ccccc2oc1=O (stereo not drawn) [warfarin] |  |  |  | Papp at 5 h ([2]; pH 7.4): 5.28 ×10⁻⁶ cm/s
CC(C)(C)NC[C@H](O)COc1nsnc1N1CCOCC1 [timolol] | 4.45 ×10⁻⁶ cm/s |  | 0.61 10^−6 cm/s | PAMPA permeability values found by the prior art ([1]; in words): low
Nc1nc2c(ncn2COCCO)c(=O)[nH]1 [acyclovir] | 0.1 ×10⁻⁶ cm/s |  |  | 
Cc1cc(=O)n(-c2ccccc2)n1C [antipyrine] |  |  | 0.74 10^−6 cm/s | PAMPA permeability values found by the prior art ([1]; PAMPA): low
CC(C)(C)c1ccc(C(O)CCCN2CCC(C(O)(c3ccccc3)c3ccccc3)CC2)cc1 (stereo not drawn) [terfenadine] |  |  |  | measured permeability with 10% methanol, 90% PBS as working buffer [2]: can be measured
COCCc1ccc(OCC(O)CNC(C)C)cc1 (stereo not drawn) [metoprolol] | 4.29 ×10⁻⁶ cm/s |  |  | PAMPA permeability values found by the prior art ([1]; in words): low
CNC(=C[N+](=O)[O-])NCCSCc1ccc(CN(C)C)o1 [ranitidine] |  | 61% |  | Pe Subject Invention Membrane Results ([2]; PBS pH 7.4, room temperature, no agitation, 5 hours): 0.45 10^−6 cm/s
Clc1cccc(Cl)c1N=C1NCCN1 [clonidine] | 4.92 ×10⁻⁶ cm/s | 100% | 1.5 10^−6 cm/s | 
CC(C)NCC(O)COc1cccc2[nH]ccc12 (stereo not drawn) [pindolol] | 2.64 ×10⁻⁶ cm/s |  |  | 
Clc1ccc(COC(Cn2ccnc2)c2ccc(Cl)cc2Cl)c(Cl)c1 (stereo not drawn) [miconazole] |  |  |  | measured permeability with 10% methanol, 90% PBS as working buffer [2]: can be measured
NS(=O)(=O)c1cc2c(cc1Cl)NCNS2(=O)=O [hydrochlorothiazide] | 0.09 ×10⁻⁶ cm/s |  | 0.02 10^−6 cm/s | 
NC(N)=Nc1nc(CSCCC(N)=NS(N)(=O)=O)cs1 [famotidine] | 0.04 ×10⁻⁶ cm/s | 40% | 0.06 10^−6 cm/s | 

Continued, in another order:

Papp at 5 h [2, 4] | SMILES | Human Absorption [3] | Pe Prior Art Results [1, 5] | other results
3.1 ×10⁻⁶ cm/s | CC(C(=O)O)c1cccc(C(=O)c2ccccc2)c1 (stereo not drawn) [ketoprofen] |  |  | PAMPA permeability values found by the prior art ([1]; in words): low
4.02 ×10⁻⁶ cm/s | CN1C(C(=O)Nc2ccccn2)=C(O)c2ccccc2S1(=O)=O [piroxicam] | 100% | 2.64 10^−6 cm/s | 
7.79 ×10⁻⁶ cm/s | NC(=O)N1c2ccccc2C=Cc2ccccc21 [carbamazepine] | 100% | 6.4 10^−6 cm/s | 
6.3 ×10⁻⁶ cm/s | O=C(O)Cc1ccccc1Nc1c(Cl)cccc1Cl [diclofenac] |  |  | 
5.73 ×10⁻⁶ cm/s | O=C1NC(=O)C(c2ccccc2)(c2ccccc2)N1 [phenytoin] |  | 0.38 10^−6 cm/s | PAMPA permeability values found by the prior art ([1]; in words): low
6.24 ×10⁻⁶ cm/s | COc1ccc2c(c1)c(CC(=O)O)c(C)n2C(=O)c1ccc(Cl)cc1 [indomethacin] |  |  | 
0.16 ×10⁻⁶ cm/s | O=C(O)c1cc(/N=N/c2ccc(S(=O)(=O)Nc3ccccn3)cc2)ccc1O [sulphasalazine] | 13% | 0.00 10^−6 cm/s | 
0.16 ×10⁻⁶ cm/s | CC(C)(C)NCC(O)COc1cccc2c1CC(O)C(O)C2 (stereo not drawn) [nadolol] | 30% | 0.28 10^−6 cm/s | 
4.39 ×10⁻⁶ cm/s | CC(C)Cc1ccc(C(C)C(=O)O)cc1 (stereo not drawn) [ibuprofen] |  | 2.4 10^−6 cm/s | 
